The values below come from patent publication US10329302B2, “Bicyclic-fused heteroaryl or aryl compounds” (Pfizer Inc., priority 2014, dated 2019).

Where two headings read alike, the source gives them in different places.

The test deals with human IRAK4 FL (Full Length) (Homo sapiens (Human), UniProt Q9NWZ3). The test can be described thus: IRAK4 Enzymatic DELFIA Assay, Protocol A. The format is biochemical.
The mark [1] stands for this setting: human IRAK4 FL, 0.6 mM ATP (KM), read-out: IRAK4 DELFIA Protocol A IC50.

human IRAK4 FL (Full Length), sequence (Q9NWZ3 whole entry): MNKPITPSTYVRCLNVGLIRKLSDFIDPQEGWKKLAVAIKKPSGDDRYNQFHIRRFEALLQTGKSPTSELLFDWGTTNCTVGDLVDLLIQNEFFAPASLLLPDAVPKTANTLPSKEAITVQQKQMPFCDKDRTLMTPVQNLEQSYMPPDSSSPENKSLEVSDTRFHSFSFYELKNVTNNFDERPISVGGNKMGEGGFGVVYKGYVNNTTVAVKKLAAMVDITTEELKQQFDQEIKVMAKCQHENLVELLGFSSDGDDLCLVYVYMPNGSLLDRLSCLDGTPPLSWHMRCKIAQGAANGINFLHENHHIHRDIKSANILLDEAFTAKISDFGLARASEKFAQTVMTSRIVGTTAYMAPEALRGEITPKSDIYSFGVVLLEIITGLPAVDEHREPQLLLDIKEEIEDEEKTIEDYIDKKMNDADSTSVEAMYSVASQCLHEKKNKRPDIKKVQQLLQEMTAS

Usually IC50 stands for the concentration needed to halve the response being measured. On to `Cc1cnc(OC[C@@H]2CCC(=O)N2)c2cc(OC(C)C)c(C(N)=O)cc12` [Example 05, 4-methyl-1-{[(2S)-5-oxopyrrolidin-2-yl]methoxy}-7-(propan-2-yloxy)isoquinoline-6-carboxamide], for which the concentration for half-maximal inhibition (IC50) under setting [1] came out at 84 nM.
On the same count and under the same terms, to `CC(C)Oc1cc2c(OC[C@@H]3CCN(C(=O)CC#N)C3)ccnc2cc1C(N)=O` [Example 23, 4-{[(3R)-1-(cyanoacetyl)pyrrolidin-3-yl]methoxy}-6-(propan-2-yloxy)quinoline-7-carboxamide] belongs 656 nM; to `CC(C)Oc1cc2c(OCC3CN(C(=O)CC#N)C3)ccnc2cc1C(N)=O` [Example 60, 4-{[1-(cyanoacetyl)azetidin-3-yl]methoxy}-6-(propan-2-yloxy)quinoline-7-carboxamide], 8.9 nM; to `CC(C)Oc1cc2c(OCC3CN(C(=O)CC#N)C3)nccc2cc1C(N)=O` [Example 69, 1-{[1-(cyanoacetyl)azetidin-3-yl]methoxy}-7-(propan-2-yloxy)isoquinoline-6-carboxamide], 29 nM.
Same read-out and setting: to `CC(C)Oc1cc2c(OCC3COCC(=O)N3)nccc2cc1C(N)=O` (stereo not drawn) [Example 116, 1-[(5-oxomorpholin-3-yl)methoxy]-7-(propan-2-yloxy)isoquinoline-6-carboxamide] belongs 146 nM; to `CC(C)Oc1cc2c(OCC3NC(=O)C4CCCCC34)nccc2cc1C(N)=O` (stereo not drawn) [Example 118, 1-[(3-oxooctahydro-1H-isoindol-1-yl)methoxy]-7-(propan-2-yloxy)isoquinoline-6-carboxamide], 162 nM; to `NC(=O)c1cc2ccnc(OC[C@@H]3CCC(=O)N3)c2cc1OC1CCC1` [Example 120, 7-(cyclobutyloxy)-1-{[(2S)-5-oxopyrrolidin-2-yl]methoxy}isoquinoline-6-carboxamide], 1140 nM.
Same read-out and setting: the result for `CC(C)Oc1cc2c(OC[C@]34CCC[C@H]3CNC4)nccc2cc1C(N)=O` [Example 123, 1-[(3aR,6aR)-hexahydrocyclopenta[c]pyrrol-3a(1H)-ylmethoxy]-7-(propan-2-yloxy)isoquinoline-6-carboxamide] reads 747 nM.
For the molecule `CC(C)Oc1cc2c(OC[C@]3(C)CCC(=O)N3)nccc2cc1C(N)=O` [Example 126, 1-{[(2S)-2-methyl-5-oxopyrrolidin-2-yl]methoxy}-7-(propan-2-yloxy)isoquinoline-6-carboxamide], under setting [1], the IC50 worked out at 42 nM.
Turning to `NC(=O)c1cc2ccnc(OC[C@@H]3CCC(=O)N3)c2cc1OC(F)F` [Example 129, 7-(difluoromethoxy)-1-{[(2S)-5-oxopyrrolidin-2-yl]methoxy}isoquinoline-6-carboxamide], the IC50 under setting [1] was 231 nM.
For `CC(C)Oc1cc2c(OC[C@@H]3C[C@@](C)(F)C(=O)N3)nccc2cc1C(N)=O` [Example 133, 1-{[(2S,4R)-4-fluoro-4-methyl-5-oxopyrrolidin-2-yl]methoxy}-7-(propan-2-yloxy)isoquinoline-6-carboxamide], the IC50 under setting [1] stood at 175 nM.
Still for that read-out and setting: the result for `CC(C)Oc1cc2c(OC[C@@H]3C[C@H](C(C)(C)O)C(=O)N3)nccc2cc1C(N)=O` [Example 137, 1-{[(2S,4R)-4-(2-hydroxypropan-2-yl)-5-oxopyrrolidin-2-yl]methoxy}-7-(propan-2-yloxy)isoquinoline-6-carboxamide] reads 98 nM; that for `CC(C)Oc1cc2c(OCC3CCC(=O)NC3)nccc2cc1C(N)=O` (stereo not drawn) [Example 142, 1-[(6-oxopiperidin-3-yl)methoxy]-7-(propan-2-yloxy)isoquinoline-6-carboxamide], 1220 nM.
In the case of `CC(C)Oc1cc2c(OCC3CCS(=O)(=O)N3)nccc2cc1C(N)=O` (stereo not drawn) [Example 143, 1-[(1,1-dioxido-1,2-thiazolidin-3-yl)methoxy]-7-(propan-2-yloxy)isoquinoline-6-carboxamide], the IC50 under setting [1] amounted to 2540 nM.
As to `CC(C)Oc1cc2c(OC[C@H]3NC(=O)C[C@@H]3N)nccc2cc1C(N)=O` [Example 149, 1-{[(2S,3S)-3-amino-5-oxopyrrolidin-2-yl]methoxy}-7-(propan-2-yloxy)isoquinoline-6-carboxamide], the IC50 under setting [1] was found to be 105 nM.
Same read-out and setting: the result for `CC(C)Oc1cc2c(OC[C@@]3(CO)CCC(=O)N3)nccc2cc1C(N)=O` [Example 153, 1-{[(2S)-2-(hydroxymethyl)-5-oxopyrrolidin-2-yl]methoxy}-7-(propan-2-yloxy)isoquinoline-6-carboxamide] reads 1480 nM; that for `CC(C)Oc1cc2c(OC[C@]3(CO)CCC(=O)N3)nccc2cc1C(N)=O` [Example 154, 1-{[(2R)-2-(hydroxymethyl)-5-oxopyrrolidin-2-yl]methoxy}-7-(propan-2-yloxy)isoquinoline-6-carboxamide], 17 nM.
Still for that read-out and setting: to `CC(C)Oc1cc2c(OC[C@H]3NC(=O)C[C@@H]3C(F)(F)F)nccc2cc1C(N)=O` [Example 155, 1-{[(2S,3S)-5-oxo-3-(trifluoromethyl)pyrrolidin-2-yl]methoxy}-7-(propan-2-yloxy)isoquinoline-6-carboxamide] belongs 267 nM; to `CC(C)Oc1cc2c(O[C@H](C)[C@@H]3CCC(=O)N3)nccc2cc1C(N)=O` [Example 156, 1-{(1R)-1-[(2S)-5-oxopyrrolidin-2-yl]ethoxy}-7-(propan-2-yloxy)isoquinoline-6-carboxamide], 4100 nM.
On the same count and under the same terms, to `CC(C)Oc1cc2c(O[C@@H](C)[C@@H]3CCC(=O)N3)nccc2cc1C(N)=O` [Example 157, 1-{(1S)-1-[(2S)-5-oxopyrrolidin-2-yl]ethoxy}-7-(propan-2-yloxy)isoquinoline-6-carboxamide] belongs 152 nM; to `CC(C)Oc1cc2c(OC[C@@H]3C[C@H](CO)C(=O)N3)nccc2cc1C(N)=O` [Example 165, 1-{[(2S,4R)-4-(hydroxymethyl)-5-oxopyrrolidin-2-yl]methoxy}-7-(propan-2-yloxy)isoquinoline-6-carboxamide], 541 nM; to `CC(C)Oc1cc2c(OC[C@@H]3CCC(=O)N3)nccc2cc1C(=O)O` [Example 169, 1-{[(2S)-5-oxopyrrolidin-2-yl]methoxy}-7-(propan-2-yloxy)isoquinoline-6-carboxylic acid], 890 nM.
In the case of `CC(C)Oc1cc2c(OC[C@@H]3C[C@@](F)(C(C)(C)O)C(=O)N3)nccc2cc1C(N)=O` [Example 171, 1-{[(2S,4R)-4-fluoro-4-(2-hydroxypropan-2-yl)-5-oxopyrrolidin-2-yl]methoxy}-7-(propan-2-yloxy)isoquinoline-6-carboxamide], the IC50 under setting [1] worked out at 101 nM.
Still for that read-out and setting: to `CC(C)Oc1c(C(N)=O)cc2ccnc(OC[C@@H]3CCC(=O)N3)c2c1F` [Example 176, 8-fluoro-1-{[(2S)-5-oxopyrrolidin-2-yl]methoxy}-7-(propan-2-yloxy)isoquinoline-6-carboxamide] belongs 695 nM; to `NC(=O)c1cc2ccnc(OC[C@@H]3CCC(=O)N3)c2cc1OC(F)(F)F` [Example 178, 1-{[(2S)-5-oxopyrrolidin-2-yl]methoxy}-7-(trifluoromethoxy)isoquinoline-6-carboxamide], 1690 nM.
For `CC(C)Oc1cc2c(OC[C@@H]3C[C@@](O)(CC(F)(F)F)C(=O)N3)nccc2cc1C(N)=O` [Example 182, 1-{[(2S,4R)-4-hydroxy-5-oxo-4-(2,2,2-trifluoroethyl)pyrrolidin-2-yl]methoxy}-7-(propan-2-yloxy)isoquinoline-6-carboxamide], under setting [1], the IC50 came out at 1050 nM.
On to `CC(C)Oc1cc2c(OC[C@@H]3CN(C)C(=O)N3)nccc2cc1C(N)=O` [Example 185, 1-{[(4S)-1-methyl-2-oxoimidazolidin-4-yl]methoxy}-7-(propan-2-yloxy)isoquinoline-6-carboxamide], for which the IC50 under setting [1] is 116 nM.
For `CC(C)Oc1cc2c(O[C@@H]3CCC[C@]34CCC(=O)N4)nccc2cc1C(N)=O` [Example 186, 1-{[(5S,6R)-2-oxo-1-azaspiro[4.4]non-6-yl]oxy}-7-(propan-2-yloxy)isoquinoline-6-carboxamide], the IC50 under setting [1] stood at 303 nM.
Turning to `CC(C)Oc1cc2c(OC[C@@H]3CCC(=O)N3)ncc(C#N)c2cc1C(N)=O` [Example 190, 4-cyano-1-{[(2S)-5-oxopyrrolidin-2-yl]methoxy}-7-(propan-2-yloxy)isoquinoline-6-carboxamide], the concentration for half-maximal inhibition (IC50) under setting [1] is 294 nM.
For the molecule `CC(C)Oc1cc2c(OC[C@@H]3C[C@H](C4(O)COC4)C(=O)N3)nccc2cc1C(N)=O` [Example 192, 1-{[(2S,4R)-4-(3-hydroxyoxetan-3-yl)-5-oxopyrrolidin-2-yl]methoxy}-7-(propan-2-yloxy)isoquinoline-6-carboxamide], the IC50 under setting [1] is 284 nM.
On to `CC(C)Oc1cc2c(OC[C@@H]3C[C@@H](C4(O)COC4)C(=O)N3)nccc2cc1C(N)=O` [Example 193, 1-{[(2S,4S)-4-(3-hydroxyoxetan-3-yl)-5-oxopyrrolidin-2-yl]methoxy}-7-(propan-2-yloxy)isoquinoline-6-carboxamide], for which the IC50 under setting [1] stood at 238 nM.
The molecule `CC(C)Oc1cc2c(OC[C@@H]3CCC(=O)N3)ncc(CN)c2cc1C(N)=O` [Example 195, 4-(aminomethyl)-1-{[(2S)-5-oxopyrrolidin-2-yl]methoxy}-7-(propan-2-yloxy)isoquinoline-6-carboxamide] gave a concentration for half-maximal inhibition (IC50) of 3400 nM.
Regarding `NC(=O)c1cc2ccnc(OC[C@@H]3CCC(=O)N3)c2cc1OC1COC1` [Example 199, 7-(oxetan-3-yloxy)-1-{[(2S)-5-oxopyrrolidin-2-yl]methoxy}isoquinoline-6-carboxamide], the IC50 under setting [1] worked out at 2900 nM.
With `CC(C)(C)Oc1cc2c(OC[C@@H]3CCC(=O)N3)nccc2cc1C(N)=O` [Example 200, 7-tert-butoxy-1-{[(2S)-5-oxopyrrolidin-2-yl]methoxy}isoquinoline-6-carboxamide], under setting [1], the IC50 is 697 nM.
The same measure, in the same setting: to `NC(=O)c1cc2ccnc(OC[C@@H]3CCC(=O)N3)c2cc1OCC1CC1` [Example 204, 7-(cyclopropylmethoxy)-1-{[(2S)-5-oxopyrrolidin-2-yl]methoxy}isoquinoline-6-carboxamide] belongs 2060 nM; to `COc1cc2c(OC[C@H]3NC(=O)[C@@](F)(CO)[C@H]3C)nccc2cc1C(N)=O` [Example 210, 1-{[(2S,3S,4S)-4-fluoro-4-(hydroxymethyl)-3-methyl-5-oxopyrrolidin-2-yl]methoxy}-7-methoxyisoquinoline-6-carboxamide], 3470 nM.
